The source of these data is US20220218614A1, “IONIZABLE CATIONIC LIPIDS AND LIPID NANOPARTICLES, AND METHODS OF SYNTHESIS AND USE THEREOF” (Tidal Therapeutics, Inc., priority 2020, published 2022).

For one test, the system named is CD69. Kind of test: CD69 upregulation on T cells after LNP transfection (FACS staining). Type of test: cell-based, human. As to conditions: approximately 24 hr after targeted Lipid 8 LNPs at approximately 2.5 μg/mL mRNA. The procedure: (§1) LNPs were prepared using the mixing process described in Example 6, the buffer exchange process described below in Example 21. Using methods similar to Example 12, hSP34 and TRX2 Fab-lipid conjugates and a non-T cell specific anti-HER2 lipid-conjugate (Nellis D F, Ekstrom D L, Kirpotin D B, Zhu J, Andersson R, Broadt T L, Ouellette T F, Perkins S C, Roach J M, Drummond D C, Hong K, Marks J D, Park J W and Giardina S L (2005) Preclinical manufacture of an anti-HER2 scFv-PEG-DSPE, liposome-inserting conjugate. 1. Gram-scale production and purification. Biotechnol Prog 21:205-220) were post-inserted at various densities (SP34 0.25-17 g/mol; TRX2 0.25-9 g/mol; SP34+TRX2 0.25-9 g/mol each conjugate; anti-HER2 17 g/mol) into LNPs containing Lipid 8 and anti-CD20 targeting CART mRNA. Transfections were performed with human CD3 T cells at approximately 2.5 μg/mL mRNA for approximately 24 hr. For FACS analysis T cells were stained with M1 antibody (Sigma, F3040) that bind a N-terminus FLAG-tag variant sequence on the TTR-023 CAR (sequence provided below) in addition to staining for CD69 (Biolegend, 310930) and CD4 (Biolegend, 344648) to differentiate CD8 from CD4 cells.
LNPs were prepared using the mixing process described in Example 6, the buffer exchange process described in Example 21. […]

In another test the test system is human CD3 T cells. The test is described as follows: Transfection of human CD3 T cells (CD8 and CD4 subsets) with Fab/Nb-targeted LNPs. The settings on record: targeted Lipid 8 LNP (Lipid 5 in Example 43), GFP mRNA approximately 2.5 μg/mL, approximately 24 hr. The test is classed as cell-based. The procedure: as §1
LNPs were prepared using the mixing process described in Example 6, the buffer exchange process described in Example 21. Using methods similar to Example 12, hSP34, TRX2, and Ibalizumab Fab-lipid conjugates and a non-T cell specific anti-HER2 lipid-conjugate were post-inserted at various densities (specified in FIGS. 20A and 20B into LNPs containing Lipid 8 and Cy5/GFP mRNA. Transfections were performed with human CD3 T cells at approximately 2.5 μg/mL mRNA for approximately 24 hr and stained for CD69 (Biolegend, 310930) and CD4 (Biolegend, 344648) to differentiate CD8 from CD4 cells by FACS analysis.
LNPs were prepared using the mixing process described in Example 6, the buffer exchange process described in Example 21. […] Levels of transfection of CD3 T cells was measured by flow cytometry. […]

Entries after “also recorded” stand apart in the source; their conditions may differ.

As to “Ibalizumab: anti-CD4 Fab from Ibalizumab sequence, SEQ ID NO: 10 and 11”, the “CD69 upregulation on CD8 and CD4 T cells, in words” value in the test with CD69 is “much lower levels of CD69”. Besides, in the test on human CD3 T cells, the “% GFP transfection and GFP expression (MFI) of CD8 and CD4 T cells, in words” value is “higher % transfection (FIG. 71A) and GFP expression levels; also recorded: highly specific LNP transfection and protein translation of CD4+ T cells versus CD8+ T cells; also recorded: increase in transfection efficiency going from 2K PEG to 3.4K PEG; also recorded: high binding and transfection of CD4 T cells while displaying minimal off-target binding and transfection of CD8 T cells”.
